Assay results as given in US12679843B2, “Pyrrolopyrimidine amines as complement inhibitors” (BioCryst Pharmaceuticals, Inc., priority 2020, dated 2026).

These compounds were tested against Factor D (Homo sapiens, UniProt P00746) (assay: Factor D esterolytic assay (Z-Lys-SBzl thioester substrate, DTNB, 405 nm)). Conditions: substrate Z-Lys-SBzl 1.29 mM, 100 mM HEPES, 500 mM NaCl, pH 7.5, 10% DMSO, tested a minimum of three times.
Format: biochemical
Method in brief: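 Run in pH 7.5 HEPES (100 mM) with 500 mM NaCl and 10% DMSO, with compound preincubated at room temperature or not before adding 1.29 mM Z-Lys-SBzl. Free thiol released by Factor D reacts with DTNB, and rate is followed at 405 nm minus 690 nm over 600 s. IC50 derives from rate-based inhibition, minimum three replicates.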

Chain of Factor D (P00746 26-253): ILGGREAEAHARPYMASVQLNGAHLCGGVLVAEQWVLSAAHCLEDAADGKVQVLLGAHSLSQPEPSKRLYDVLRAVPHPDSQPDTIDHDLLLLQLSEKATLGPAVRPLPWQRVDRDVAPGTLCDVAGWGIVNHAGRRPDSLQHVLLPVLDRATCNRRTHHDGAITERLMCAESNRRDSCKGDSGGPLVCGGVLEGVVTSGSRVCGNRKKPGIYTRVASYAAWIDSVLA

IC50, < 100 nM:
Nc1ncnc2c1c1cc(F)c(F)cc1n2CC(=O)N1[C@@H]2C[C@@H]2C[C@H]1C(=O)Nc1cccc(Br)n1 [Compound 386g, (1R,3S,5R)-2-(2-(4-amino-6,7-difluoro-9H-pyrimido[4,5-b]indol-9-yl)acetyl)-N-(6-bromopyridin-2-yl)-2-azabicyclo[3.1.0]hexane-3-carboxamide]
C[C@@]12C[C@@H](C(=O)Nc3cccc(Br)n3)N(C(=O)Cn3c4cc(F)c(F)cc4c4c(N)ncnc43)[C@@H]1C2 [Compound 387a, (1R,3S,5R)-2-(2-(4-amino-6,7-difluoro-9H-pyrimido[4,5-b]indol-9-yl)acetyl)-N-(6-bromopyridin-2-yl)-5-methyl-2-azabicyclo[3.1.0]hexane-3-carboxamide]
COc1cc2c(cc1F)c1c(N)ncnc1n2CC(=O)N1[C@H](C(=O)Nc2cccc(Br)n2)C[C@@]2(C)C[C@@H]12 [Compound 388a, (1R,3S,5R)-2-(2-(4-amino-6-fluoro-7-methoxy-9H-pyrimido[4,5-b]indol-9-yl)acetyl)-N-(6-bromopyridin-2-yl)-5-methyl-2-azabicyclo[3.1.0]hexane-3-carboxamide]
Nc1ncnc2c1c1cc(Br)c(F)cc1n2CC(=O)N1[C@@H]2C[C@@H]2C[C@H]1C(=O)Nc1cccc(Br)n1 [Compound 389g, (1R,3S,5R)-2-(2-(4-amino-6-bromo-7-fluoro-9H-pyrimido[4,5-b]indol-9-yl)acetyl)-N-(6-bromopyridin-2-yl)-2-azabicyclo[3.1.0]hexane-3-carboxamide]
C[C@@]12C[C@@H](C(=O)Nc3cccc(Br)n3)N(C(=O)Cn3c4cc(F)c(Br)cc4c4c(N)ncnc43)[C@@H]1C2 [Compound 390a, (1R,3S,5R)-2-(2-(4-amino-6-bromo-7-fluoro-9H-pyrimido[4,5-b]indol-9-yl)acetyl)-N-(6-bromopyridin-2-yl)-5-methyl-2-azabicyclo[3.1.0]hexane-3-carboxamide]
Cc1cc(F)c2c(c1)c1c(N)ncnc1n2CC(=O)N1[C@@H]2C[C@@H]2C[C@H]1C(=O)Nc1cccc(Br)n1 [Compound 391g, (1R,3S,5R)-2-(2-(4-amino-8-fluoro-6-methyl-9H-pyrimido[4,5-b]indol-9-yl)acetyl)-N-(6-bromopyridin-2-yl)-2-azabicyclo[3.1.0]hexane-3-carboxamide]
Cc1cc(F)c2c(c1)c1c(N)ncnc1n2CC(=O)N1[C@H](C(=O)Nc2cccc(Br)n2)C[C@@]2(C)C[C@@H]12 [Compound 392a, (1R,3S,5R)-2-(2-(4-amino-8-fluoro-6-methyl-9H-pyrimido[4,5-b]indol-9-yl)acetyl)-N-(6-bromopyridin-2-yl)-5-methyl-2-azabicyclo[3.1.0]hexane-3-carboxamide]
